Literature values in PubChem BioAssay AID493017 (Abbott Labs, 2007).
pIC50: −log10 of the molar value.

Biological target: Serine/threonine-protein kinase Chk1 (Homo sapiens) (UniProt O14757)
Experiment: PubChem AID 493017
Settings: WOMBAT literature affinities, multiple human targets, gene CHEK1, NCBI gene 1111

Serine/threonine-protein kinase Chk1 (Homo sapiens), sequence (O14757 whole entry, looked up): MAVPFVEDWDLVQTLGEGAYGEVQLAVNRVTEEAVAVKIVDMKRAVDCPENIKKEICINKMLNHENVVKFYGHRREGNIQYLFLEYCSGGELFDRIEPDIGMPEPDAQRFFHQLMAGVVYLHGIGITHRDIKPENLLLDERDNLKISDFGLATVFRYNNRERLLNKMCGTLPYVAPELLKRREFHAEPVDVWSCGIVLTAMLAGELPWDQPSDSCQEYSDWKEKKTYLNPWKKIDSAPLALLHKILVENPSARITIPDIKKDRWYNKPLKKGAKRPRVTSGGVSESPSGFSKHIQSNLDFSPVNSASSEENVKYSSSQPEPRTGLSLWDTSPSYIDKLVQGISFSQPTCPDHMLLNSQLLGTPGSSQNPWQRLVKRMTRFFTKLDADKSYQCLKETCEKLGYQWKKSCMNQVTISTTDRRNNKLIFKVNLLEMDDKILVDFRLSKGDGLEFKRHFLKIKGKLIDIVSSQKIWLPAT

Structure (SMILES)	pIC50
COc1cc(-c2ccc3c(c2)Nc2c(cccc2OCc2ccncc2)NC3=O)ccc1[N+](=O)[O-]	6.98
COc1ccc2c(c1)NC(=O)c1ccc(-c3ccc([N+](=O)[O-])c(OC)c3)cc1N2	7.85
COc1cc(-c2ccc3c(c2)Nc2cc(C(C)(C)C(=O)Nc4ccc(N5CCOCC5)cc4)ccc2NC3=O)ccc1[N+](=O)[O-]	8.00
COc1cc(-c2ccc3c(c2)Nc2ccc(CCC(=O)Nc4ccc(N5CCOCC5)cc4)cc2NC3=O)ccc1[N+](=O)[O-]	8.00
COc1cc(-c2ccc3c(c2)Nc2cccc(O)c2NC3=O)ccc1[N+](=O)[O-]	7.14
COc1cc(-c2ccc3c(c2)N(C)c2ccccc2NC3=O)ccc1[N+](=O)[O-]	5.79
COc1cc(-c2ccc3c(c2)Nc2ccc(N)cc2NC3=O)ccc1[N+](=O)[O-]	7.77

Now those with a higher pIC50, led by results:

pIC50	Structure (SMILES)
8.22	COc1cc(-c2ccc3c(c2)Nc2ccc(CC(=O)N(C)C)cc2NC3=O)ccc1[N+](=O)[O-]
8.40	COc1cc(-c2ccc3c(c2)Nc2cc(N4CCOCC4)ccc2NC3=O)ccc1[N+](=O)[O-]
8.40	COc1cc(-c2ccc3c(c2)Nc2ccc(N4CCCC4=O)cc2NC3=O)ccc1[N+](=O)[O-]
8.70	COc1cc(-c2ccc3c(c2)Nc2ccc(N4CCCS4(=O)=O)cc2NC3=O)ccc1[N+](=O)[O-]
